Source: patent publication US9346769B2, “Tetrazolones as inhibitors of fatty acid synthase” (Infinity Pharmaceuticals, Inc., priority 2010, dated 2016)

Molecular target: T1, human FASN (Homo sapiens, UniProt P49327)
T1 construct: was purified from SKBR3 cells using procedures modified from those in Jayakumar et al; endogenous in cells; host or cells: SKBR3 human breast cancer cells (ATCC); Endogenous enzyme purified by ammonium sulfate precipitation and a mono Q column
Assay: FASN NADPH Consumption Assay
Type: biochemical
Settings: human FASN purified from SKBR3 cells; starred symbols
Description: Human FASN protein (SEQ ID NO. 1) was purified from SKBR3 cells using procedures modified from those in Jayakumar et al. PNAS 1995, 92:8695-8699. SKBR3 cells were obtained from ATCC and grown in DMEM high glucose medium supplemented with 10% FBS, 1 μg/mL bovine pancreas insulin, 100 U/mL penicillin and 100 µg/mL streptomycin. The confluent cells were trypsinized and washed three times with PBS buffer before frozen in liquid N2 and stored at −80° C. Frozen cells were thawed on ice and resuspended in lysis buffer (25 mM Tris-HCl, pH 7.0, 15 mM NaCl, 1 mM EDTA, and 1 mM DTT) with protease inhibitors. The cells were lysed by sonication, and the cell debris was removed by centrifugation at 20,000 rpm for 30 min. To the supernatant, neutralized saturated ammonium sulfate solution was added to a final concentration of 35%. The solution was left on ice for 1 hr, and the precipitated proteins were harvested by centrifugation at 20,000 rpm for 30 min. The proteins were redissolved in lysis buffer without NaCl and loaded on a mono Q column. Bound proteins were eluted with a linear gradient of NaCl in lysis buffer. Each fraction was analyzed by SDS-PAGE and FASN NADPH consumption assay. The fractions containing FASN were pooled and concentrated to 2-3 mg/mL. Glycerol was added to 20%, and the protein was frozen in liquid N2 and stored at −80° C.
All chemicals were purchased from Sigma (St. Louis, Mo.). The procedures of NADPH consumption assay were similar to those described in Cox et al., PNAS 1983, 80:4233-4237. On a 96-well polypropylene microplate, dilution series (typical concentrations 60 nM-1.0 mM) of test compounds were prepared in DMSO, of which 4.0 μL each was transferred to a black polystyrene assay microplate and mixed with 36 μL FASN assay buffer (50 mM potassium phosphate, pH 7.0, 1.0 mM EDTA, 0.01% NP-40) plus 5.0 mM fresh DTT. FASN protein (40 μL 150 nM FASN) was added per well, and the microplate was incubated at 37° C. for 30 min. Enzyme activity measurement was initiated by addition of 20 μL 5× substrate mixture to final concentrations of 60 nM FASN, 2.4 nM-40 μM compound, 0.2 mM NADPH, 50 μM butyryl-CoA, 0.5 mM malonyl-CoA in 100 μL assay buffer plus 5.0 mM DTT and 4.0% DMSO. NADPH consumption was monitored kinetically by fluorescence (λEx=340 nm, λEm=460 nm) on an EnVision 2100 multilabel plate reader (Perkin Elmer, Waltham, Mass.). FASN enzyme activity (slope) in the presence of 4% DMSO was used as maximum control, whereas background (minimum control) was measured by omission of malonyl-CoA in the substrate mixture. Inhibition curves were fitted by a logistic function to yield IC50 values:
Compounds were assayed as inhibitors of human FASN using the above-described FASN Scintillation Proximity Flashplate Assay (IC50; nM) or FASN NADPH Consumption Assay (*) (IC50; nM). The corresponding activity of the isolated compound is also provided along with the measured mass (ES^+).

T1 sequence (P49327 whole entry): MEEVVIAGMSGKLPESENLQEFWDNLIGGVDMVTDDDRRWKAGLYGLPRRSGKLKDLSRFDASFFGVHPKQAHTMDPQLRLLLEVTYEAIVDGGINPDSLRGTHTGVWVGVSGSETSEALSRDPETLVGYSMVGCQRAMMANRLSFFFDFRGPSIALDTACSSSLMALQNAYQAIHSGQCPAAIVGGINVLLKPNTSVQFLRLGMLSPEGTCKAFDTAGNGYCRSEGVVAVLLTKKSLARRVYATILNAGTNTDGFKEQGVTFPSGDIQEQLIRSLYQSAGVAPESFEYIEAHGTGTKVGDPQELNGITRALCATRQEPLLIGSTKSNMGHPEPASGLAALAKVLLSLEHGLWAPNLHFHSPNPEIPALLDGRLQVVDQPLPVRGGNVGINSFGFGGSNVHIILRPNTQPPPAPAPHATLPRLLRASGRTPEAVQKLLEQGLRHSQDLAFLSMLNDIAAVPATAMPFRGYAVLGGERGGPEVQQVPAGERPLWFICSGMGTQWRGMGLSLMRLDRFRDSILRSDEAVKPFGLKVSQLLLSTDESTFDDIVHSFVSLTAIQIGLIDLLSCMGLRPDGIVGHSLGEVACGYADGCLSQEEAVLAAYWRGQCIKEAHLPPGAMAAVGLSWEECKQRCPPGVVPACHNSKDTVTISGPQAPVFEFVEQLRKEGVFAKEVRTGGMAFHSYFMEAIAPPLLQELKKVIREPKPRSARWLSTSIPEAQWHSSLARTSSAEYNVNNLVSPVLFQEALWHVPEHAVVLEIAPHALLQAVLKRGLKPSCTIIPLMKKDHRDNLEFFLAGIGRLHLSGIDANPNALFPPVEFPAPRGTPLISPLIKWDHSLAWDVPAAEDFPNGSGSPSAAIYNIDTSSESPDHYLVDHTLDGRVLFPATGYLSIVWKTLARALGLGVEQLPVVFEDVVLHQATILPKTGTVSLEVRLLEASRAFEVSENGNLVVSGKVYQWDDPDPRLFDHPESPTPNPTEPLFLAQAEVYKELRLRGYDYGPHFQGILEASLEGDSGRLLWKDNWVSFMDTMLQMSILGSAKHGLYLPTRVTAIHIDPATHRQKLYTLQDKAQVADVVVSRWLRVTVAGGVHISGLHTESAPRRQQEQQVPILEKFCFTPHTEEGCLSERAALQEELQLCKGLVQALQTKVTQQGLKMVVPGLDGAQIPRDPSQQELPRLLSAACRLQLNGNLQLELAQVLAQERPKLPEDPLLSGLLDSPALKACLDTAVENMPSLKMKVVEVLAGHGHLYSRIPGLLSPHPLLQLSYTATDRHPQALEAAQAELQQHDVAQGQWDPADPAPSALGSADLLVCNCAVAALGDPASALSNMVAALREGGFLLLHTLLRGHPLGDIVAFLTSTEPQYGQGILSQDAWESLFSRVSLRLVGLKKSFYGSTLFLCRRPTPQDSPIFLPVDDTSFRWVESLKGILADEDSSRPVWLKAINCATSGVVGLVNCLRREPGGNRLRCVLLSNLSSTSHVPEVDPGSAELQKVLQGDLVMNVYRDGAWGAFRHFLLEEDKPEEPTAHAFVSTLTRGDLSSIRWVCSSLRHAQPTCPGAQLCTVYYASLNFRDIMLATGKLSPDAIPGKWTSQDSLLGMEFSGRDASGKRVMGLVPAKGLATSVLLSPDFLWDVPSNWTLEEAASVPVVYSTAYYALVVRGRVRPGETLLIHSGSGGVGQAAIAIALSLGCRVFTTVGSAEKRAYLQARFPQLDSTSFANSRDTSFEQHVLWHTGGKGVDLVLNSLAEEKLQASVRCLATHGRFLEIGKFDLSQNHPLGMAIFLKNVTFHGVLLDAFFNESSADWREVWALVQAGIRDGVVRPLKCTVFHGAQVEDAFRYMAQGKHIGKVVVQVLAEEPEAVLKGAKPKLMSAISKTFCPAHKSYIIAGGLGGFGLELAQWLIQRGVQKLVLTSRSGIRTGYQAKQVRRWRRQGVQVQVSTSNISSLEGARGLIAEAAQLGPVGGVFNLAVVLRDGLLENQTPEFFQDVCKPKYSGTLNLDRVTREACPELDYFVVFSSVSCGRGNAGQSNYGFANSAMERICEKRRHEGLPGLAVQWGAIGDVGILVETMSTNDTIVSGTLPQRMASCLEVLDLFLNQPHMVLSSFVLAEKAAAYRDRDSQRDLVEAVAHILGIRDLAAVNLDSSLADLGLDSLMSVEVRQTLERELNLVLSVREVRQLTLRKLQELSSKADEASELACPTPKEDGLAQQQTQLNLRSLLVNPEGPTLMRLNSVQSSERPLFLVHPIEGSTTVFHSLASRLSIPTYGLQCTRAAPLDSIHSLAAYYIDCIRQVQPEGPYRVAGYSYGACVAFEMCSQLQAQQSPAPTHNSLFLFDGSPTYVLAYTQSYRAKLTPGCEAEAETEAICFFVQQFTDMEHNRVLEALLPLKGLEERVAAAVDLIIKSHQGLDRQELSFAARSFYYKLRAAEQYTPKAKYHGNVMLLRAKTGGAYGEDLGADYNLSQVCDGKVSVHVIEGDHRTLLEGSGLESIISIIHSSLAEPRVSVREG

Row | Structure (SMILES) | IC50
1 | CN(C(=O)n1nnn(-c2c(F)cccc2F)c1=O)c1ccccc1F | 60 to 250 nM
2 | CCN(C(=O)n1nnn(-c2c(F)cccc2F)c1=O)c1ccc(Cl)cc1Cl | 60 to 250 nM
3 | Cc1cccc2c1N(C(=O)n1nnn(-c3c(F)cccc3F)c1=O)CCC2 | 60 to 250 nM
4 | CCN(C(=O)n1nnn(-c2c(F)cccc2OC)c1=O)c1ccc(C(=O)OCc2ccccc2)c(OC)c1 | < 60 nM
5 | CCN(C(=O)n1nnn(-c2c(F)cccc2F)c1=O)c1cccc(C)c1 | < 60 nM
6 | CCN(C(=O)n1nnn(-c2c(F)cccc2F)c1=O)c1ccc(C(=O)O)cc1 | < 60 nM
7 | O=C(N(c1ccccc1)c1ccccc1)n1nnn(-c2ccccc2Oc2ccccc2)c1=O | 60 to 250 nM
8 | CCN(C(=O)n1nnn(-c2c(F)cccc2C#Cc2ccccc2)c1=O)c1ccccc1 | 60 to 250 nM
9 | Cc1ccc2c(c1)CCCN2C(=O)n1nnn(-c2c(F)cccc2F)c1=O | 60 to 250 nM
10 | CCN(C(=O)n1nnn(-c2ccccc2)c1=O)c1cc(C(=O)O)ccc1OC | 60 to 250 nM
11 | CCN(C(=O)n1nnn(-c2c(Cl)cccc2Cl)c1=O)c1ccc(N)cc1 | 60 to 250 nM
12 | CCCCC#Cc1ccc(N(CC)C(=O)n2nnn(-c3c(F)cccc3F)c2=O)c(F)c1 | 60 to 250 nM
13 | C=CCN(C(=O)n1nnn(-c2ccccc2Cl)c1=O)c1ccccc1 | 60 to 250 nM
14 | CCN(C(=O)n1nnn(-c2c(F)cccc2C#Cc2ccccc2C)c1=O)c1ccccc1 | 60 to 250 nM
15 | CCN(C(=O)n1nnn(-c2c(Cl)cccc2Cl)c1=O)c1ccc(C(=O)O)cc1OC | 60 to 250 nM
16 | CCN(C(=O)n1nnn(-c2c(F)cccc2F)c1=O)c1ccccc1-c1ccccc1 | 1000 to 10000 nM
17 | CCN(C(=O)n1nnn(-c2ccccc2Cl)c1=O)C1CCCCC1 | 1000 to 10000 nM
18 | CCN(C(=O)n1nnn(-c2c(Cl)cccc2Cl)c1=O)c1ccc(C(=O)O)c(OC)c1 | 60 to 250 nM
19 | CCN(C(=O)n1nnn(-c2c(F)cccc2F)c1=O)c1ccccc1OC(F)(F)F | 60 to 250 nM
20 | CCN(C(=O)n1nnn(-c2c(Cl)cccc2Cl)c1=O)c1cccc(C(=O)O)c1OC | 1000 to 10000 nM
21 | COc1ccc(C(=O)O)cc1N(CCCc1ccccc1)C(=O)n1nnn(-c2c(F)cccc2F)c1=O | 60 to 250 nM

Row | Structure (SMILES) | IC50
22 | CN(C(=O)n1nnn(-c2c(Cl)cccc2Cl)c1=O)c1ccccc1 | 60 to 250 nM
23 | CCN(C(=O)n1nnn(-c2ccccc2OC)c1=O)c1ccc(OC)c(C(=O)O)c1 | 250 to 1000 nM
24 | CCN(C(=O)n1nnn(-c2c(F)cccc2F)c1=O)c1ccc(CCc2ccccc2)cc1F | 60 to 250 nM
25 | CCN(C(=O)n1nnn(-c2c(F)cccc2F)c1=O)c1ccccc1[N+](=O)[O-] | < 60 nM
26 | CCN(C(=O)n1nnn(-c2c(F)cccc2F)c1=O)c1ccc(C)cc1 | 60 to 250 nM
27 | CN(C(=O)n1nnn(-c2c(F)cccc2F)c1=O)c1ccccc1C(F)(F)F | 60 to 250 nM
28 | Nc1cccc2c1CCCN2C(=O)n1nnn(-c2c(F)cccc2F)c1=O | 60 to 250 nM
29 | CCN(C(=O)n1nnn(-c2c(F)cccc2CCc2ccccc2)c1=O)c1ccccc1 | 60 to 250 nM
30 | CS(=O)(=O)NC1CCCN(C(=O)n2nnn(-c3c(Cl)cccc3Cl)c2=O)C1 (centres unmarked) | > 10000 nM
31 | CCCN(C(=O)n1nnn(-c2c(F)cccc2F)c1=O)c1ccccc1 | 60 to 250 nM
32 | COC(=O)C1CCc2ccccc2N1C(=O)n1nnn(-c2ccccc2Oc2ccccc2)c1=O (centres unmarked) | 250 to 1000 nM
33 | CCN(C(=O)n1nnn(-c2c(F)cccc2F)c1=O)c1ccc(Br)cc1F | 60 to 250 nM
34 | CCN(C(=O)n1nnn(-c2c(Cl)cccc2Cl)c1=O)c1cccc(CO)c1 | 250 to 1000 nM
35 | CS(=O)(=O)NCCCN(C(=O)n1nnn(-c2c(Cl)cccc2Cl)c1=O)c1ccc(C(=O)O)cc1 | 1000 to 10000 nM
36 | CCN(C(=O)n1nnn(-c2c(Cl)cccc2Cl)c1=O)c1cccc(C(=O)NS(=O)(=O)c2ccccc2)c1 | < 60 nM
37 | O=C(C1CCCN(C(=O)n2nnn(-c3c(Cl)cccc3Cl)c2=O)C1)N1CCCC1 (centres unmarked) | > 10000 nM
38 | COc1ccccc1N(C)C(=O)n1nnn(-c2c(F)cccc2F)c1=O | 250 to 1000 nM
39 | CN(C(=O)n1nnn(-c2c(F)cccc2F)c1=O)c1ccccn1 | 250 to 1000 nM
40 | CC(C)N(C(=O)n1nnn(-c2c(F)cccc2F)c1=O)c1cccc(C(=O)OCc2ccccc2)c1 | < 60 nM
41 | CCN(C(=O)n1nnn(-c2c(Cl)cccc2Cl)c1=O)c1ccc([N+](=O)[O-])cc1 | 60 to 250 nM
42 | O=C(N1Cc2ccccc2Cc2ccccc21)n1nnn(-c2c(F)cccc2F)c1=O | 60 to 250 nM

Further lines, results first:

Row | IC50 | Structure (SMILES)
43 | 1000 to 10000 nM | CCN(C(=O)n1nnn(-c2c(Cl)cccc2Cl)c1=O)C1CCC(C(=O)NC)CC1 (centres unmarked)
44 | 1000 to 10000 nM | CCNC(=O)N1CCC(N(CC)C(=O)n2nnn(-c3c(Cl)cccc3Cl)c2=O)CC1
45 | > 10000 nM | CCN(C(=O)n1nnn(-c2ccc(C(F)(F)F)cc2Cl)c1=O)C1CCCCC1
46 | > 10000 nM | CCCN(C)C(=O)n1nnn(-c2ccccc2Cl)c1=O
47 | 1000 to 10000 nM | N#CCCN(C(=O)n1nnn(-c2c(Cl)cccc2Cl)c1=O)C1CCCCC1
48 | > 10000 nM | CN(CCc1ccccc1)C(=O)n1nnn(-c2ccccc2Cl)c1=O
49 | > 10000 nM | CCN(C(=O)n1nnn(-c2ccsc2)c1=O)C1CCCCC1
50 | 1000 to 10000 nM | CCN(C(=O)n1nnn(-c2ccc(F)cc2F)c1=O)C1CCCCC1
51 | 60 to 250 nM | CCN(C(=O)n1nnn(-c2c(F)cccc2F)c1=O)c1ccc(C#CCC2CCCCC2)cc1F
52 | 1000 to 10000 nM | CCOC(=O)N1CCC(N(CC)C(=O)n2nnn(-c3c(Cl)cccc3Cl)c2=O)CC1
53 | 1000 to 10000 nM | CCN(C(=O)n1nnn(-c2ccccc2F)c1=O)C1CCCCC1
54 | 1000 to 10000 nM | CCN(C(=O)n1nnn(-c2ccccc2Oc2ccccc2)c1=O)C1CCCCC1
55 | 1000 to 10000 nM | CCN(C(=O)n1nnn(-c2c(Cl)cccc2Cl)c1=O)C1CCCC(C(=O)NC)C1 (centres unmarked)
56 | > 10000 nM | CC(C)C[C@@H](NC=O)C(=O)NCCCN(C(=O)n1nnn(-c2c(Cl)cccc2Cl)c1=O)C1CCCCC1
57 | 1000 to 10000 nM | CCN(C(=O)n1nnn(-c2ccccc2C#N)c1=O)C1CCCCC1
58 | 60 to 250 nM | O=C(N1CCCC2CCCCC21)n1nnn(-c2c(F)cccc2F)c1=O (centres unmarked)
59 | 1000 to 10000 nM | CCN(CC)C(=O)n1nnn(-c2ccccc2Cl)c1=O
60 | 1000 to 10000 nM | CCN(C(=O)n1nnn(-c2c(Cl)cccc2Cl)c1=O)C1CCCN(S(C)(=O)=O)C1 (centres unmarked)
61 | 1000 to 10000 nM | C=CCN(C(=O)n1nnn(-c2ccccc2Oc2ccccc2)c1=O)C1CCN(C(=O)OC(C)(C)C)CC1

Row | IC50 | Structure (SMILES)
62 | 1000 to 10000 nM | CCN(C(=O)n1nnn(-c2c(Cl)cc(Cl)cc2Cl)c1=O)C1CCCCC1
63 | > 10000 nM | CCNC(=O)n1nnn(-c2ccccc2)c1=O
64 | > 10000 nM | CCN(C(=O)n1nnn(-c2ccc(Cl)cc2)c1=O)C1CCCCC1
65 | 1000 to 10000 nM | CCC(C)c1ccccc1-n1nnn(C(=O)N(CC)C2CCCCC2)c1=O (centres unmarked)
66 | > 10000 nM | CCN(C(=O)n1nnn(-c2c(C)cccc2C)c1=O)C1CCCCC1
67 | 1000 to 10000 nM | CCN(C(=O)n1nnn(-c2c(Cl)cccc2Cl)c1=O)C1CCCN(C(=O)Cc2ccccc2)C1 (centres unmarked)
68 | > 10000 nM | CC(C)N(C(=O)n1nnn(-c2ccccc2Cl)c1=O)C(C)C
69 | > 10000 nM | O=C(N(Cc1ccco1)C1CCCCC1)n1nnn(-c2c(Cl)cccc2Cl)c1=O
70 | 1000 to 10000 nM | CCCCCCN(C)C(=O)n1nnn(-c2ccccc2Cl)c1=O
71 | 1000 to 10000 nM | CCN(C(=O)n1nnn(-c2ccccc2C(C)C)c1=O)C1CCCCC1
72 | 1000 to 10000 nM | O=C(NCCCN(C(=O)n1nnn(-c2c(Cl)cccc2Cl)c1=O)C1CCCCC1)c1cccnc1
73 | 1000 to 10000 nM | O=C(N1CCCCC1)n1nnn(-c2c(Cl)cccc2Cl)c1=O
74 | 1000 to 10000 nM | O=CNCC(=O)NCCCN(C(=O)n1nnn(-c2c(Cl)cccc2Cl)c1=O)C1CCCCC1
75 | 1000 to 10000 nM | CCN(C(=O)n1nnn(-c2ccc(Br)cc2Br)c1=O)C1CCCCC1
76 | > 10000 nM | CCN(C(=O)n1nnn(-c2c(C)nn(C)c2C)c1=O)C1CCCCC1
77 | 1000 to 10000 nM | CCN(C(=O)n1nnn(-c2c(Cl)cccc2Cl)c1=O)C1CCC(C(=O)NC(C(N)=O)c2ccccc2)CC1 (centres unmarked)
78 | 1000 to 10000 nM | CCN(C(=O)n1nnn(-c2ccccc2C)c1=O)C1CCCCC1
79 | 1000 to 10000 nM | C/C=C/C/C=C/CCCN(C)C(=O)n1nnn(-c2ccccc2Cl)c1=O
80 | 1000 to 10000 nM | CCN(C(=O)n1nnn(-c2c(Cl)cccc2Cl)c1=O)[C@@H]1CCC[C@@H](C(=O)N2CCOCC2)C1
